Measured values reported in the NIST ThermoML archive (doi:10.1021/je050416y).

Experiment: xn = mol fraction of the nth substance listed
Conditions: 101 kPa, Liquid; for mass density: Vibrating tube method

CCC(C)CO (configuration not stated) [2-methyl-1-butanol] + CCO
Conditions | kinematic viscosity [m2/s] | mass density [kg/m3]
293.15 K, x1 = 0.0268 | – | 790.9
293.15 K, x1 = 0.0549 | – | 792.1
293.15 K, x1 = 0.0845 | – | 793.4
293.15 K, x1 = 0.0915 | 1.66e-06 | –
293.15 K, x1 = 0.1156 | – | 794.7
293.15 K, x1 = 0.1484 | – | 795.9
293.15 K, x1 = 0.1753 | 1.8e-06 | –
293.15 K, x1 = 0.183 | – | 797.2
293.15 K, x1 = 0.2524 | 1.92e-06 | –
293.15 K, x1 = 0.2584 | – | 799.9
293.15 K, x1 = 0.3235 | 2.04e-06 | –
293.15 K, x1 = 0.3433 | – | 802.7
293.15 K, x1 = 0.3894 | 2.17e-06 | –
293.15 K, x1 = 0.4395 | – | 805.5
293.15 K, x1 = 0.4505 | 2.32e-06 | –
293.15 K, x1 = 0.5495 | – | 808.4
293.15 K, x1 = 0.5605 | 2.67e-06 | –
293.15 K, x1 = 0.6567 | 3.06e-06 | –
293.15 K, x1 = 0.6765 | – | 811.4
293.15 K, x1 = 0.7416 | 3.47e-06 | –
293.15 K, x1 = 0.817 | 3.92e-06 | –
293.15 K, x1 = 0.8247 | – | 814.5
293.15 K, x1 = 0.8844 | 4.45e-06 | –
293.15 K, x1 = 0.9451 | 5.14e-06 | –
293.15 K, x1 = 1 | 6.11e-06 | 817.6
298.15 K, x1 = 0.0268 | – | 786.6
298.15 K, x1 = 0.0549 | – | 787.9
298.15 K, x1 = 0.0845 | – | 789.2
298.15 K, x1 = 0.0915 | 1.5e-06 | –
298.15 K, x1 = 0.1156 | – | 790.6
298.15 K, x1 = 0.1484 | – | 791.9
298.15 K, x1 = 0.1753 | 1.61e-06 | –
298.15 K, x1 = 0.183 | – | 793.2
298.15 K, x1 = 0.2524 | 1.71e-06 | –
298.15 K, x1 = 0.2584 | – | 796
298.15 K, x1 = 0.3235 | 1.82e-06 | –
298.15 K, x1 = 0.3433 | – | 798.8
298.15 K, x1 = 0.3894 | 1.93e-06 | –
298.15 K, x1 = 0.4395 | – | 801.8
298.15 K, x1 = 0.4505 | 2.06e-06 | –
298.15 K, x1 = 0.5495 | – | 804.8
298.15 K, x1 = 0.5605 | 2.36e-06 | –
298.15 K, x1 = 0.6567 | 2.69e-06 | –
298.15 K, x1 = 0.6765 | – | 807.9
298.15 K, x1 = 0.7416 | 3.04e-06 | –
298.15 K, x1 = 0.817 | 3.43e-06 | –
298.15 K, x1 = 0.8247 | – | 811
298.15 K, x1 = 0.8844 | 3.89e-06 | –
298.15 K, x1 = 0.9451 | 4.49e-06 | –
298.15 K, x1 = 1 | 5.34e-06 | 814.1
303.15 K, x1 = 0.0268 | – | 782.3
303.15 K, x1 = 0.0549 | – | 783.7
303.15 K, x1 = 0.0845 | – | 785
303.15 K, x1 = 0.0915 | 1.32e-06 | –
303.15 K, x1 = 0.1156 | – | 786.4
303.15 K, x1 = 0.1484 | – | 787.8
303.15 K, x1 = 0.1753 | 1.41e-06 | –
303.15 K, x1 = 0.183 | – | 789.2
303.15 K, x1 = 0.2524 | 1.5e-06 | –
303.15 K, x1 = 0.2584 | – | 792
303.15 K, x1 = 0.3235 | 1.59e-06 | –
303.15 K, x1 = 0.3433 | – | 795
303.15 K, x1 = 0.3894 | 1.68e-06 | –
303.15 K, x1 = 0.4395 | – | 798
303.15 K, x1 = 0.4505 | 1.8e-06 | –
303.15 K, x1 = 0.5495 | – | 801.1
303.15 K, x1 = 0.5605 | 2.06e-06 | –
303.15 K, x1 = 0.6567 | 2.35e-06 | –
303.15 K, x1 = 0.6765 | – | 804.2
303.15 K, x1 = 0.7416 | 2.66e-06 | –
303.15 K, x1 = 0.817 | 3e-06 | –
303.15 K, x1 = 0.8247 | – | 807.4
303.15 K, x1 = 0.8844 | 3.41e-06 | –
303.15 K, x1 = 0.9451 | 3.94e-06 | –
303.15 K, x1 = 1 | 4.69e-06 | 810.5
308.15 K, x1 = 0.0268 | – | 778
308.15 K, x1 = 0.0549 | – | 779.4
308.15 K, x1 = 0.0845 | – | 780.9
308.15 K, x1 = 0.0915 | 1.2e-06 | –
308.15 K, x1 = 0.1156 | – | 782.3
308.15 K, x1 = 0.1484 | – | 783.8
308.15 K, x1 = 0.1753 | 1.27e-06 | –
308.15 K, x1 = 0.183 | – | 785.2
308.15 K, x1 = 0.2524 | 1.34e-06 | –
308.15 K, x1 = 0.2584 | – | 788.1
308.15 K, x1 = 0.3235 | 1.42e-06 | –
308.15 K, x1 = 0.3433 | – | 791.2
308.15 K, x1 = 0.3894 | 1.5e-06 | –
308.15 K, x1 = 0.4395 | – | 794.3
308.15 K, x1 = 0.4505 | 1.6e-06 | –
308.15 K, x1 = 0.5495 | – | 797.5
308.15 K, x1 = 0.5605 | 1.82e-06 | –
308.15 K, x1 = 0.6567 | 2.07e-06 | –
308.15 K, x1 = 0.6765 | – | 800.7
308.15 K, x1 = 0.7416 | 2.33e-06 | –
308.15 K, x1 = 0.817 | 2.62e-06 | –
308.15 K, x1 = 0.8247 | – | 803.9
308.15 K, x1 = 0.8844 | 2.97e-06 | –
308.15 K, x1 = 0.9451 | 3.43e-06 | –
308.15 K, x1 = 1 | 4.08e-06 | 807.1
313.15 K, x1 = 0.0268 | – | 773.7
313.15 K, x1 = 0.0549 | – | 775.2
313.15 K, x1 = 0.0845 | – | 776.7
313.15 K, x1 = 0.0915 | 1.08e-06 | –
313.15 K, x1 = 0.1156 | – | 778.2
313.15 K, x1 = 0.1484 | – | 779.7
313.15 K, x1 = 0.1753 | 1.14e-06 | –
313.15 K, x1 = 0.183 | – | 781.2
313.15 K, x1 = 0.2524 | 1.2e-06 | –
313.15 K, x1 = 0.2584 | – | 784.2
313.15 K, x1 = 0.3235 | 1.26e-06 | –
313.15 K, x1 = 0.3433 | – | 787.3
313.15 K, x1 = 0.3894 | 1.33e-06 | –
313.15 K, x1 = 0.4395 | – | 790.5
313.15 K, x1 = 0.4505 | 1.41e-06 | –
313.15 K, x1 = 0.5495 | – | 793.8
313.15 K, x1 = 0.5605 | 1.6e-06 | –
313.15 K, x1 = 0.6567 | 1.8e-06 | –
313.15 K, x1 = 0.6765 | – | 797
313.15 K, x1 = 0.7416 | 2.03e-06 | –
313.15 K, x1 = 0.817 | 2.28e-06 | –
313.15 K, x1 = 0.8247 | – | 800.3
313.15 K, x1 = 0.8844 | 2.58e-06 | –
313.15 K, x1 = 0.9451 | 2.97e-06 | –
313.15 K, x1 = 1 | 3.54e-06 | 803.6
318.15 K, x1 = 0.0268 | – | 769.4
318.15 K, x1 = 0.0549 | – | 771
318.15 K, x1 = 0.0845 | – | 772.5
318.15 K, x1 = 0.0915 | 9.8e-07 | –
318.15 K, x1 = 0.1156 | – | 774.1
318.15 K, x1 = 0.1484 | – | 775.6
318.15 K, x1 = 0.1753 | 1.03e-06 | –
318.15 K, x1 = 0.183 | – | 777.2
318.15 K, x1 = 0.2524 | 1.07e-06 | –
318.15 K, x1 = 0.2584 | – | 780.3
318.15 K, x1 = 0.3235 | 1.13e-06 | –
318.15 K, x1 = 0.3433 | – | 783.5
318.15 K, x1 = 0.3894 | 1.19e-06 | –
318.15 K, x1 = 0.4395 | – | 786.8
318.15 K, x1 = 0.4505 | 1.25e-06 | –
318.15 K, x1 = 0.5495 | – | 790.1
318.15 K, x1 = 0.5605 | 1.41e-06 | –
318.15 K, x1 = 0.6567 | 1.59e-06 | –
318.15 K, x1 = 0.6765 | – | 793.4
318.15 K, x1 = 0.7416 | 1.78e-06 | –
318.15 K, x1 = 0.817 | 2e-06 | –
318.15 K, x1 = 0.8247 | – | 796.7
318.15 K, x1 = 0.8844 | 2.26e-06 | –
318.15 K, x1 = 0.9451 | 2.6e-06 | –
318.15 K, x1 = 1 | 3.09e-06 | 800.1
323.15 K, x1 = 0.0268 | – | 765.1
323.15 K, x1 = 0.0549 | – | 766.7
323.15 K, x1 = 0.0845 | – | 768.3
323.15 K, x1 = 0.0915 | 8.59e-07 | –
323.15 K, x1 = 0.1156 | – | 769.9
323.15 K, x1 = 0.1484 | – | 771.5
323.15 K, x1 = 0.1753 | 8.96e-07 | –
323.15 K, x1 = 0.183 | – | 773.1
323.15 K, x1 = 0.2524 | 9.37e-07 | –
323.15 K, x1 = 0.2584 | – | 776.3
323.15 K, x1 = 0.3235 | 9.83e-07 | –
323.15 K, x1 = 0.3433 | – | 779.6
323.15 K, x1 = 0.3894 | 1.04e-06 | –
323.15 K, x1 = 0.4395 | – | 782.9
323.15 K, x1 = 0.4505 | 1.1e-06 | –
323.15 K, x1 = 0.5495 | – | 786.3
323.15 K, x1 = 0.5605 | 1.23e-06 | –
323.15 K, x1 = 0.6567 | 1.39e-06 | –
323.15 K, x1 = 0.6765 | – | 789.7
323.15 K, x1 = 0.7416 | 1.56e-06 | –
323.15 K, x1 = 0.817 | 1.75e-06 | –
323.15 K, x1 = 0.8247 | – | 793.2
323.15 K, x1 = 0.8844 | 1.98e-06 | –
323.15 K, x1 = 0.9451 | 2.28e-06 | –
323.15 K, x1 = 1 | 2.72e-06 | 796.6
